Where two headings read alike, the source gives them in different places. Marks after values point to notes of the source that are not given here. Some results are limits rather than exact numbers.

We go through 3 compounds from publication PMC12281485, “High-Throughput Screening of Potent Drug-like Molecules Targeting 17β-HSD10 for the Treatment of Alzheimer’s Disease and Cancer” (ACS Chemical Biology, 2025).

The nature of series [1]: Mouse hepatocyte metabolic stability. It counts as in vitro ADME. More on the design: k (elimination constant): unit not given here. The following applies: mouse hepatocytes; for Heps category: metabolism category; for Cl (clearance): limits of quantitation 0.5 and 50; for half-life: read-out: T1/2 (half-life). The procedure:
(§1) Hepatocyte isolation, hepatocyte incubations for metabolic stability, plasma protein binding (PPB) experiments, and LC/MS sample analysis were carried out as previously described in Brandon et al. and MacLeod et al.
XLfit (IDBS, UK) was used to calculate the exponential decay and the rate constant (k) from the ratio of the peak area of the test compound to the internal standard at each time point. […] Verapamil, 7-ethoxycoumarin, 7-hydroxycoumarin, and phthalazine were used as positive controls to confirm acceptable assay performance. […] Values were transferred to RStudio v1.3.1093 (Posit, Boston, MA, USA) for generation of scatter plots and heatmaps using the ggplot2 package (Wickham 2016).

For series [2], the target named is T1, 17β-HSD10 (Homo sapiens, UniProt Q99714).
T1 construct: Recombinant 17β-HSD10 was expressed and purified as previously described in Aitken et al; made in house
T1 sequence (Q99714 1-261): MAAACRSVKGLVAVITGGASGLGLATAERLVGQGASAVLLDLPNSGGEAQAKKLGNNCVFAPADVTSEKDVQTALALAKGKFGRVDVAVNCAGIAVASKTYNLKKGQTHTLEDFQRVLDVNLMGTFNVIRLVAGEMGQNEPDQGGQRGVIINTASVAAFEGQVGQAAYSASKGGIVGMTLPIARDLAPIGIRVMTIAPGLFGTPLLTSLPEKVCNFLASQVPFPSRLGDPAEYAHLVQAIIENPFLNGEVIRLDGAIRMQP
More on the design: method as in Kissinger et al. The note with it: Table 5, ref Kissinger et al.; cited from earlier work.

The target in series [3] is T1, 17β-HSD10. The series can be described thus: 17β-HSD10 enzyme inhibition dose-response assay (acetoacetyl-CoA/NADH, absorbance 340 nm). In kind it is biochemical. The procedure:
Recombinant 17β-HSD10 was expressed and purified as previously described in Aitken et al.
17β-HSD10 screening was carried out as described in Aitken et al. with the exception that experiments were also conducted in clear-bottom 1536-well low-volume microplates (Corning) with a final assay volume of 20 μL. For primary screening, an endpoint assay format was adopted, in which an Echo acoustic liquid dispenser (Labcyte) was used to transfer 20 nL of either DMSO control […] or test compounds (10 μM) to the assay plate. 10 μL of the 17β-HSD10 enzyme in an assay buffer (2.5 nM) was then added to the plates using the Preddator liquid handling robot (Redd and Whyte), and plates were incubated at RT for 15 min. 10 μL of the substrate mixture (100 μM acetoacetyl-CoA and 100 μM NADH) was added with the Preddator. To start the reaction, the plates were left to incubate for 35 min at RT before the absorbance at 340 nm was read on the EnVision plate reader (PerkinElmer). For the kinetic assay format and dose-response follow-up experiments, the same protocol was adopted, except that the absorbance at 340 nm was monitored constantly for 45 min from immediately after the reaction was started.

The test system of series [4] is HEK293 cells overexpressing 17β-HSD10. The experiment in a line: LDH cytotoxicity assay. It counts as cell-based, human. The note with it: 50 μM compound, 24 h, n = 3 ± SD. The procedure: Cell cytotoxicity was assessed via the measurement of LDH leakage into the culture medium using a commercially available kit from Pierce (Thermo Scientific cat no. 88953). This was carried out in accordance with the kit guidelines, with the activity of LDH being calculated from the change in absorbance at […]. Human embryonic kidney (HEK293) cells overexpressing 17β-HSD10 were cultured in phenol-red free media (10% FBS, 1 mM sodium pyruvate, 100 units penicillin, 0.1 mg mL^–1 streptomycin, and 2 mM L-glutamine) and seeded at a density of 10,000 cells per well (100 μL, 96-well plates). […] Treated cells were then incubated at 37 °C and CO2 (5%) for 24 h before the LDH assay was performed as per the manufacturer’s instructions. Spontaneous control (water) and maximum control (lysis buffer) were used in accordance with the kit guide. Absorbance was measured at 490 and 680 nm using the SpectraMaxM2e spectrophotometer. The measured LDH activity was used to calculate %cytotoxicity using the following equation (eq ): %cytotoxicity=(compoundtreatedLDHactivity−spontaneousLDHactivity)/(maximumLDHactivity−spontaneousLDHactivity)×100 1

Series [5] can be described thus: Alamar Blue cell viability assay. It counts as cell-based, human. The note with it: human, HEK293 cells overexpressing 17β-HSD10, 50 μM compound, n = 3 ± SD, read-out: Alamar Blue % viability (50 μM dose). The procedure: Cell viability was assessed via fluorescence change using the commercially available Alamar Blue from ThermoFisher. HEK293 cells overexpressing 17β-HSD10 were cultured in phenol-red free media (10% FBS, 1 mM sodium pyruvate, 100 units penicillin, 0.1 mg mL^–1 streptomycin, and 2 mM L-glutamine) and seeded at a density of 10,000 cells per well (100 μL, 96-well plates). […] Treated cells were then incubated at 37 °C and CO2 (5%) for 24 h before the assay was performed as per the manufacturer’s instructions. Fluorescence was measured at 530 nm excitation and 590 nm emission using the SpectraMaxM2e spectrophotometer.

Series [6] has as its target T1, 17β-HSD10. The experiment in a line: (−)-CHANA fluorescence assay of cellular 17β-HSD10 activity. It counts as cell-based. The note with it: read-out: cellular 17β-HSD10 activity mean pEC50 (converted). The procedure:
(−)–CHANA ((−)-cyclohexenyl amino naphthalene alcohol) is a fluorogenic probe that can be used to detect 17β-HSD10 activity in living cells. HEK293 17β-HSD10 cells were seeded at a density of 10,000 cells per well (100 μL, 96-well black plates) in phenol-red free media (10% FBS, 1 mM sodium pyruvate, 100 units penicillin, 0.1 mg mL^–1 streptomycin, and 2 mM L-glutamine). […] The fluorogenic probe (−)–CHANA was then added to each well to give a final assay concentration of 20 μM. Fluorescence was immediately measured using the FLUOstar Optima microplate reader (excitation = 380 nm, emission = 520 nm, orbital averaging = 3 mm), and the initial reaction was monitored for 3–4 h. EC50 was calculated from the control-subtracted triplicates using nonlinear regression (four parameters) of GraphPad Prism 5 software. The Final EC50 and SEM values were obtained as a mean of at least three independent measurements.

A short description of series [7]: Mouse plasma protein binding. It counts as in vitro ADME. The following applies: read-out: mouse PPB (% free). The procedure: as §1
The mark [8] stands for this setting: Table 4, 17β-HSD10 overexpressing HEK293 cells, CHANA fluorescence assay.
Setting [9] is: Table 5, HEK293 17β-HSD10 cells, CHANA assay.

For the compound `O=C(C(c1ccccc1)n1cnc2[nH]ncc2c1=S)N1CCCCCC1` (centres unmarked) [AG18051, reference compound], in series [1], the “T1/2 (half-life)” value was determined as 6.6 min, the “k (elimination constant)” value was 0.11, the Heps category result is on record as “High” and the “Cl (clearance)” value is given as >50 mL/min/g liver. Besides, the “mean 17β-HSD10 pIC50” value at 17β-HSD10 [2] was 7.04 ^b.

For `O=C(c1sccc1Cl)N1CCC[C@H]1c1ccccc1-c1cc(O)ccc1F` [ESC1002842], at 17β-HSD10 [3] (Table 3, chemically modified singleton hit compound series, read-out: 17β-HSD10 pIC50 (converted)), the IC50 is 40.7 nM. For the same compound, the “LDH % toxicity (50 μM dose)” value in series [4] is 5.90 ± 0.004%. In series [5], the viability at 24 h, 50 μM amounted to 82.44 ± 0.32%. In addition, the EC50 at 17β-HSD10 [6] (setting [8]) is 40 nM. Also, on 17β-HSD10 [6] (setting [9]), the EC50 was 40 nM. Further, in series [1], the “k (elimination constant)” value is 0.17, the Heps category entry is “high”, the “Cl (clearance)” value was >50 mL/min/g liver and the half-life amounted to 4 min. The fraction unbound in series [7] turned out to be 0.034.

For `Cc1ccc(C(=O)N(CC(C)C)c2cccc(N(C)Cc3c[nH]cn3)c2)c(F)c1` [ESC1002575], the IC50 at 17β-HSD10 [3] (Table 2, chemically modified cluster hit compounds, read-out: 17β-HSD10 pIC50 (converted)) is 269 nM. Besides, the IC50 at 17β-HSD10 [3] (Table 5, read-out: mean 17β-HSD10 pIC50 (converted)) was 269 nM. In addition, the “LDH % toxicity (50 μM dose)” value in series [4] was found to be 4.78 ± 0.02%. Further, the viability at 24 h, 50 μM in series [5] turned out to be 92.57 ± 0.47%. Also, the EC50 on 17β-HSD10 [6] (setting [8]) was 367 nM. At 17β-HSD10 [6] (setting [9]), the EC50 was 367 nM. For the same compound, in series [1], the “k (elimination constant)” value was found to be 0.012, the Heps category result was “mod”, the “Cl (clearance)” value is reported as 5.8 mL/min/g liver and the half-life came out at 57.2 min. Also, in series [7], the fraction unbound amounted to 0.076.
